According to patent US20110053872A1, “Pharmaceutical Composition For Preventing And Treating Diabetic Nephropathy And The Preparation Method Thereof” (GUANGZHOU CONSUN MEDICINE R & D CO., LTD., priority 2009, published 2011):

Legend:
[1] = system: DN model Wistar rats induced by streptozotocin; experiment: STZ DN model rat: urinary production, total protein, microalbumin and creatinine; type: in vivo; settings: for Microalbumin: urine
Procedure: (§1) The DN model Wistar rats were randomly divided into […] with 10 rats each group as indicated: normal glucose group; model group; CAL group (6, 2, 0.7 mg/kg); CAG group (9, 3, 1 mg/kg); CAL+CAG group (CAL:CAG, 2 mg/kg:1 mg/kg, 1 mg/kg:2 mg/kg); Radix Astragali group (5 g/kg); Aminoguanidine group (100 mg/kg).
(§2) The drugs or sodium chloride were intragastric adminstrated once each day for 14 weeks. After the administration, the total volume urine was collected by metabolic cage. The contents of urinary production, total protein, microalbumin and creatinine were determinated, and the biochemical indicators in blood was determinated using automatic biochemical analyzer. Then the kideny with fog Hahn fixation was reserved for histopathological examination.

[2] = system: DN model Wistar rats induced by streptozotocin; experiment: STZ DN model rat: serum biochemical indicators; type: in vivo; set-up: AGEs (advanced glycosylation end products): unit not given here
Procedure: as §1, §2

[3] = system: DN model Wistar rats induced by streptozotocin; experiment: STZ DN model rat: pathohistological indicators; type: in vivo; settings: kidney
Procedure: as §1, §2

TGFβ-1 = TGFβ-1 expression induced by high glucose (immunohistochemical staining, FIG. 2); type: cell-based, rat; settings: 25 mM glucose
Procedure: wherein A: normal glucose group; B: high glucose group (25 mM); C: negative control group; D: CAL group (100 nM); E: CAL group (10 nM); F: CAL group (1 nM); G: CAG group (100 nM); H: CAG group (10 nM); I: CAG group (1 nM); J: Radix Astragali group (RA, 50 mg/ml aqueous extract); K: CAL:CAG group (10 μg/ml:5 μg/ml); L: CAL:CAG group (5 μg/ml:10 μg/ml).
(§3) The treatment was the same as section 2.1 in Experiment 1. The measurement of matrix proliferation was measured by determinating the content of hydroxyproline and the expression of TGFβ-1.
(§4) The coverslips were pre-placed in the 24-wells plates to stick the cells. The cells were treated with various concentrations of reagents as indicated in Experiment 1. After the cells covered with coverslip, the supernatant was used for the determination of hydroxyproline and the slides of cells were treated with stained with immunohistochemical and PAS staining. The cells cultured without TGFβ-1 antibody were taken as the negative control.

rat mesangial cells [4] = experiment: Content of hydroxyproline in cell culture fluid of rat mesangial cells induced by high glucose; type: cell-based; settings: high glucose (25 mM)
Procedure: as §3, §4

[5] = system: Rat mesangial cell line HBZY21; experiment: High glucose-induced rat mesangial cell proliferation (MTT reduction assay); type: cell-based; settings: 25 mM glucose, 24 h
Procedure: (§5) The mesangial cells in their exponential growth phase were cultured in 96-well plates at densities of 50000 cm^−2 in DMEM (5 mM glucose) at 37° C. in 5% CO2-95% air for 24 h. After pre-incubation in DMEM supplemented without fetal calf serum for 24 h, cells were then treated with various concentrations of glucose or AGEs for 24 h, 48 h, 72 h, 96 h, respectively.
(§6) According to the aboved method, after pre-incubation in DMEM supplemented without fetal calf serum for 24 h, cells were pretreated with 25 mM glucose, then were treated with various concentrations of reagents as indicated: normal glucose group (NG, 5.5 mM glucose); high glucose group (HG, 25 mM glucose); CAL group (CAL, 10, 100 nM); CAG group (CAG, 10, 100 nM); CAL+CAG group (CAL:CAG, 10 μg/ml:5 μg/ml, 5 μg/ml:10 μg/ml); Radix Astragali group (RA, 50 mg/ml aqueous extract). The plates were then incubated for 24 h. Proliferation was examined by MTT reduction assay. Experimental conditions were tested in sextuplicate (six wells of the 96-well plate per experimental condition).

[6] = system: Rat mesangial cell line HBZY21; experiment: AGEs-induced rat mesangial cell proliferation (MTT reduction assay); type: cell-based; settings: 0.25 mg/ml AGEs, 24 h
Procedure: as §5
as §6, with “Cells” for “According to the aboved method, after pre-incubation in DMEM supplemented without fetal calf serum for 24 h, cells”, “0.25 mg/mlAGEs,” for “25 mM glucose,”, “AGEs” for “high glucose”, “(AGEs, 0.25 mg/mlAGEs);” for “(HG, 25 mM glucose);”

rat mesangial cells [7] = experiment: ECM accrementition induced by high glucose (PAS staining, FIG. 1); type: cell-based; settings: 25 mM glucose
Procedure: wherein A: normal glucose group; B: high glucose group (25 mM); C: Radix Astragali group (RA, 50 mg/ml aqueous extract); D: CAL group (100 nM); E: CAL group (10 nM); F: CAL group (1 nM); G: CAG group (100 nM); H: CAG group (10 nM); I: CAG group (1 nM); J: CAL:CAG group (10 μg/ml:5 μg/ml). K: CAL:CAG group ([…]:10 μg/ml).
as §3, §4

[8] = 100 mg/kg intragastric once each day for 14 weeks
[9] = 1 mg/kg intragastric once each day for 14 weeks
[10] = 3 mg/kg intragastric once each day for 14 weeks
[11] = 9 mg/kg intragastric once each day for 14 weeks
[12] = 0.7 mg/kg intragastric once each day for 14 weeks
[13] = 2 mg/kg intragastric once each day for 14 weeks
[14] = 6 mg/kg intragastric once each day for 14 weeks

N=C(N)NN [Aminoguanidine, reference compound]
Urinary production [1, 8]: 36.2 ± 21.8 mL
Urine creatinine [1, 8]: 4.0 ± 2.3 mM
Urine protein [1, 8]: 43.2 ± 29.9 mg
Microalbumin [1, 8]: 1.00 ± 0.27 mg
AGEs (advanced glycosylation end products) [2, 8]: 283 ± 78
BUN (Blood urea nitrogen) [2, 8]: 6.6 ± 0.8 mmol/L
LDL [2, 8]: 2.01 ± 0.58 mmol/L
MDA (malonaldehyde) [2, 8]: 5.9 ± 1.7 nmol/mL
SOD (superoxide dismutase) [2, 8]: 516 ± 20 U/ml
Scr (serum creatinine) [2, 8]: 77.7 ± 20.3 µmol/L
triglyceride [2, 8]: 3.35 ± 0.87 mmol/L
ECM score (PAS %) [3, 8]: 26.5 ± 4.3 %
Patho-score [3, 8]: 2.1 ± 1.0
TGFβ-1 (%) [3, 8]: 11.7 ± 5.7 %

COc1ccc(-c2coc3cc(O[C@@H]4O[C@H](CO)[C@@H](O)[C@H](O)[C@H]4O)ccc3c2=O)cc1O [CAG, 3′-hydroxy-4′-methoxyisoflavone-7-O-β-D-glucopyranoside]
expression of TGFβ-1 induced by high glucose (TGFβ-1): inhibited
Content of hydroxyproline in cell culture fluid (rat mesangial cells [4]; 10 nM): 6.25 ± 1.20 µg/mL
Content of hydroxyproline in cell culture fluid (rat mesangial cells [4]; 100 nM): 6.00 ± 1.53 µg/mL
Urinary production [1, 9]: 58.9 ± 20.5 mL
Urine creatinine [1, 9]: 1.3 ± 0.6 mM
Urine protein [1, 9]: 67.1 ± 18.4 mg
Urinary production [1, 10]: 42.3 ± 12.8 mL
Urine creatinine [1, 10]: 2.7 ± 1.1 mM
Urine protein [1, 10]: 55.0 ± 13.4 mg
Urinary production [1, 11]: 33.9 ± 20.2 mL
Urine creatinine [1, 11]: 4.2 ± 1.6 mM
Urine protein [1, 11]: 44.2 ± 20.6 mg
Microalbumin [1, 9]: 1.52 ± 0.56 mg
Microalbumin [1, 10]: 0.90 ± 0.45 mg
Microalbumin [1, 11]: 0.93 ± 0.22 mg
AGEs (advanced glycosylation end products) [2, 9]: 288 ± 44
BUN (Blood urea nitrogen) [2, 9]: 6.9 ± 0.9 mmol/L
LDL [2, 9]: 1.94 ± 0.44 mmol/L
MDA (malonaldehyde) [2, 9]: 7.9 ± 1.6 nmol/mL
SOD (superoxide dismutase) [2, 9]: 490 ± 23 U/ml
Scr (serum creatinine) [2, 9]: 89.0 ± 21.1 µmol/L
triglyceride [2, 9]: 3.20 ± 0.71 mmol/L
AGEs (advanced glycosylation end products) [2, 10]: 281 ± 46
BUN (Blood urea nitrogen) [2, 10]: 6.7 ± 0.8 mmol/L
LDL [2, 10]: 1.60 ± 0.43 mmol/L
MDA (malonaldehyde) [2, 10]: 6.5 ± 1.4 nmol/mL
SOD (superoxide dismutase) [2, 10]: 502 ± 31 U/ml
Scr (serum creatinine) [2, 10]: 73.5 ± 22.5 µmol/L
triglyceride [2, 10]: 2.66 ± 0.72 mmol/L
AGEs (advanced glycosylation end products) [2, 11]: 275 ± 68
BUN (Blood urea nitrogen) [2, 11]: 5.9 ± 1.6 mmol/L
LDL [2, 11]: 1.23 ± 0.26 mmol/L
MDA (malonaldehyde) [2, 11]: 6.5 ± 1.2 nmol/mL
SOD (superoxide dismutase) [2, 11]: 512 ± 19 U/ml
Scr (serum creatinine) [2, 11]: 74.2 ± 16.0 µmol/L
triglyceride [2, 11]: 2.43 ± 0.70 mmol/L
OD value (λ = 490 nm) ([5]; 10 nM): 0.35 ± 0.04
OD value (λ = 490 nm) ([5]; 100 nM): 0.33 ± 0.03
ECM score (PAS %) [3, 9]: 32.5 ± 4.1%
Patho-score [3, 9]: 2.8 ± 0.9
TGFβ-1 (%) [3, 9]: 20.0 ± 4.3 %
ECM score (PAS %) [3, 10]: 28.9 ± 5.4 %
Patho-score [3, 10]: 1.9 ± 1.1
TGFβ-1 (%) [3, 10]: 16.2 ± 4.7 %
ECM score (PAS %) [3, 11]: 26.9 ± 4.5 %
Patho-score [3, 11]: 1.7 ± 0.9
TGFβ-1 (%) [3, 11]: 9.1 ± 2.2 %
OD value (λ = 490 nm) ([6]; 10 nM): 0.34 ± 0.06
OD value (λ = 490 nm) ([6]; 100 nM): 0.33 ± 0.04
ECM accrementition induced by high glucose (rat mesangial cells [7]): inhibited

COc1ccc(-c2coc3cc(O)ccc3c2=O)cc1O [CAL]
expression of TGFβ-1 induced by high glucose (TGFβ-1): inhibited
Content of hydroxyproline in cell culture fluid (rat mesangial cells [4]; 10 nM): 7.15 ± 1.19 µg/mL
Content of hydroxyproline in cell culture fluid (rat mesangial cells [4]; 100 nM): 6.65 ± 1.74 µg/mL
Urinary production [1, 12]: 59.9 ± 21.8 mL
Urine creatinine [1, 12]: 1.4 ± 0.6 mM
Urine protein [1, 12]: 69.1 ± 20.4 mg
Urinary production [1, 13]: 41.3 ± 16.8 mL
Urine creatinine [1, 13]: 2.9 ± 1.2 mM
Urine protein [1, 13]: 54.0 ± 17.4 mg
Urinary production [1, 14]: 35.9 ± 22.2 mL
Urine creatinine [1, 14]: 4.3 ± 2.0 mM
Urine protein [1, 14]: 46.2 ± 21.3 mg
Microalbumin [1, 12]: 1.57 ± 0.56 mg
Microalbumin [1, 13]: 0.93 ± 0.55 mg
Microalbumin [1, 14]: 0.92 ± 0.42 mg
AGEs (advanced glycosylation end products) [2, 12]: 290 ± 59
BUN (Blood urea nitrogen) [2, 12]: 7.0 ± 1.0 mmol/L
LDL [2, 12]: 1.91 ± 0.55 mmol/L
MDA (malonaldehyde) [2, 12]: 7.8 ± 2.3 nmol/mL
SOD (superoxide dismutase) [2, 12]: 498 ± 33 U/ml
Scr (serum creatinine) [2, 12]: 91.0 ± 31.1 µmol/L
triglyceride [2, 12]: 3.23 ± 0.76 mmol/L
AGEs (advanced glycosylation end products) [2, 13]: 289 ± 56
BUN (Blood urea nitrogen) [2, 13]: 6.6 ± 1.2 mmol/L
LDL [2, 13]: 1.51 ± 0.53 mmol/L
MDA (malonaldehyde) [2, 13]: 6.8 ± 1.9 nmol/mL
SOD (superoxide dismutase) [2, 13]: 513 ± 41 U/ml
Scr (serum creatinine) [2, 13]: 76.6 ± 24.5 µmol/L
triglyceride [2, 13]: 2.76 ± 0.80 mmol/L
AGEs (advanced glycosylation end products) [2, 14]: 281 ± 78
BUN (Blood urea nitrogen) [2, 14]: 6.5 ± 1.5 mmol/L
LDL [2, 14]: 1.43 ± 0.36 mmol/L
MDA (malonaldehyde) [2, 14]: 6.8 ± 1.3 nmol/mL
SOD (superoxide dismutase) [2, 14]: 520 ± 29 U/ml
Scr (serum creatinine) [2, 14]: 75.2 ± 17.1 µmol/L
triglyceride [2, 14]: 2.57 ± 0.80 mmol/L
OD value (λ = 490 nm) ([5]; 10 nM): 0.34 ± 0.02
OD value (λ = 490 nm) ([5]; 100 nM): 0.33 ± 0.05
ECM score (PAS %) [3, 12]: 33.1 ± 5.1%
Patho-score [3, 12]: 2.7 ± 1.0
TGFβ-1 (%) [3, 12]: 19.3 ± 6.3 %
ECM score (PAS %) [3, 13]: 29.8 ± 5.6 %
Patho-score [3, 13]: 1.8 ± 1.3
TGFβ-1 (%) [3, 13]: 17.6 ± 5.8 %
ECM score (PAS %) [3, 14]: 27.0 ± 5.5 %
Patho-score [3, 14]: 1.6 ± 1.1
TGFβ-1 (%) [3, 14]: 8.8 ± 3.2 %
OD value (λ = 490 nm) ([6]; 10 nM): 0.42 ± 0.04
OD value (λ = 490 nm) ([6]; 100 nM): 0.34 ± 0.04
ECM accrementition induced by high glucose (rat mesangial cells [7]): inhibited
